# Reference: patent publication US12263155B2, “Combinations of monoamine oxidase inhibitors and serotonin receptor agonists and their therapeutic use” (Remedi, Inc., priority 2022, dated 2025)
# Legend:
# [1] = Fed versus fasted pharmacokinetics of modified release tablet; format: in vivo; conditions: human, plasma, oral, 175 mg; fed and fasted; read-out: half-life, mean, range over treatments
# Protocol: Methods: A total of 18 subjects were to participate and receive a single dose of CX157 Modified Release Tablet, 175 mg in fed or fasted states according to a randomization schedule. There was a six to seven-day washout period between the two study drug administrations.
# Each CX157 Modified Release Tablet, 175 mg is stored long-term at controlled room temperature conditions [25° C. (77° F.), excursions 15-30° C. (59-86° F.)]; the tablets are a modified caplet shape, pale pink in color, and plain on both sides.
# Oxidase MAO-A Peripheral = target: T1, Oxidase MAO-A Peripheral (Rattus norvegicus, UniProt P21396); assay: NovaScreen ligand-binding screen, MAO-A
# T1 construct: purchased NovaScreen
# T1 sequence (P21396 1-526): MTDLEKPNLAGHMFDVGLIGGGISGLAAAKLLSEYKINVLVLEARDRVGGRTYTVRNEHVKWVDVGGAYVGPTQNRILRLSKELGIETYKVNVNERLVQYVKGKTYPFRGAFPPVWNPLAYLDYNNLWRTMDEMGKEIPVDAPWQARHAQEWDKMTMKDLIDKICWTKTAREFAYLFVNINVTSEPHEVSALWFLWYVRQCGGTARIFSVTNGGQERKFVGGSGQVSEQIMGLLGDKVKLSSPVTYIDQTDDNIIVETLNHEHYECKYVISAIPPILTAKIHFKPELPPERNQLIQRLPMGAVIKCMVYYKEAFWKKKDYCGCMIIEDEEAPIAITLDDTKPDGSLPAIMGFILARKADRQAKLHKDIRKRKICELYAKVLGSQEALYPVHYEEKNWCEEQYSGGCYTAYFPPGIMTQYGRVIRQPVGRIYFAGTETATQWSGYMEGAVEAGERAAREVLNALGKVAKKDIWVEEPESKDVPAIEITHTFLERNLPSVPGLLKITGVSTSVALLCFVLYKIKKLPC
# Protocol: (§1) Methods: Investigational drug candidates CX157 were analyzed in NovaScreen's bank of ligand-binding reactions to test for specificity. CX157 was screened at concentrations of both 10.0 nM and 100 nM as potential competitors in binding reactions involving nine classes containing 69 binding sites. The following binding reactions are tested: Adenosine Non-selective, Adrenergic Alpha 1 Non-selective, Adrenergic Alpha 2 Non-selective, Adrenergic Beta Non-selective, Dopamine Transporter, Dopamine Non-selective, GABA A Agonist Site, GABA A BDZ alpha 1 site, GABA B, Glutamate AMPA Site (Ionotropic), Glutamate Kainate Site (Ionotropic), Glutamate NMDA Agonist Site (Ionotropic), Glutamate NMDA Glycine (Stry-insens Site) (Ionotrophic), Glycine Strychnine-sensitive, Histamine H1, Histamine H2, Histamine H3, Melatonin Non-selective, Muscarinic M1 (hr), Muscarinic M2 (hr), Muscarinic Non-selective Central, Muscarinic Non-selective Peripheral, Nicotinic (α-BnTx insensitive) Neuronal, Norepinephrine Transporter, Opioid Non-selective, Orphanin (hr), Serotonin Transporter, Serotonin Non-selective, Sigma Non-selective, Estrogen, Testosterone (cytosolic), Calcium Channel Type L (Dihydropyridine Site), Calcium Channel Type N, Potassium Channel ATP-Sensitive, Potassium Channel Ca2+ Act. VI, Potassium Channel I[Kr]
# [2] = test system: 69 binding sites in nine classes; assay: NovaScreen ligand-binding screen, other binding sites; conditions: 10.0 nM and 100 nM
# Protocol: as §1
# MAO-A = target: T2, MAO-A (Homo sapiens, UniProt P21397); conditions: cited from earlier work
# T2 sequence (P21397 1-527): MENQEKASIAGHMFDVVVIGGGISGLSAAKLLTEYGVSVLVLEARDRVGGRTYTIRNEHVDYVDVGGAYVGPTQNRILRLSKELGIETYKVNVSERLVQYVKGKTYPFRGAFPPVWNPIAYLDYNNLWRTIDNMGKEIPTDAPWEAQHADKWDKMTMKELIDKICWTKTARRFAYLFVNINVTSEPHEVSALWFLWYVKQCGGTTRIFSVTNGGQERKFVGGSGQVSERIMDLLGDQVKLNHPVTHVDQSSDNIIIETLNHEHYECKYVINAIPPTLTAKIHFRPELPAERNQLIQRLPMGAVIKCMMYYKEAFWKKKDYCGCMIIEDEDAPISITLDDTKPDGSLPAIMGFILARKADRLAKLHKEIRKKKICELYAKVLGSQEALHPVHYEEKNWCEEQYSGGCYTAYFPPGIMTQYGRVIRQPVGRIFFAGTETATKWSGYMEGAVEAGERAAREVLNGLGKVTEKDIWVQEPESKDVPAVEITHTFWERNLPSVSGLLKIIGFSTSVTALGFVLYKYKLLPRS
# rat liver MAO-B = target: T3, rat liver MAO-B (Rattus norvegicus, UniProt P19643); assay: In vitro inhibition of rat liver MAO-B; format: biochemical; conditions: 10 μM [14C]-PEA
# T3 construct: from tissue; host or cells: rat liver
# T3 sequence (P19643 1-520): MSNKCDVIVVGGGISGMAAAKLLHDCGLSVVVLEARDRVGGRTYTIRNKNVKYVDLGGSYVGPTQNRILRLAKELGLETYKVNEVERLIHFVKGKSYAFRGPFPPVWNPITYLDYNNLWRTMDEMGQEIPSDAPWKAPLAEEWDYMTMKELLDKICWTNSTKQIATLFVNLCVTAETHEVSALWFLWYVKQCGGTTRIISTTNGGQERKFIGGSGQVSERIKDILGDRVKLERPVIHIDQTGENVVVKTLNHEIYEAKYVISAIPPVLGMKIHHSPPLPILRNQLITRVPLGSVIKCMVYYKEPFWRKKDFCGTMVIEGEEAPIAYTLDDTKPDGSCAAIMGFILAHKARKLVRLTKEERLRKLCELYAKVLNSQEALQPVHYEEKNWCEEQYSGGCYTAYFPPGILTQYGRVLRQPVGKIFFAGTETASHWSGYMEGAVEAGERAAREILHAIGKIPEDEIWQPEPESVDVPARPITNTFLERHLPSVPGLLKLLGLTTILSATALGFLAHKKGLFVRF
# Protocol: Methods: The soluble extract of the mitochondrial enriched fraction (P2 pellet), which was prepared from brain homogenates of male Sprague-Dawley rats, served as the source of MAO-A enzymatic activity. The P2 fraction was prepared and was stored frozen until being thawed for use on the day of assay. Final concentrations of 50 μM [^14C]-serotonin (5-HT) and 10 μM [^14C]-phenylethylamine (PEA) were employed as specific substrates for MAO-A and MAO-B, respectively. Test compound inhibition was based on competition for oxidation of these radio-labeled substrates. MAO-A assay specificity was enhanced by inclusion of 0.1 μM deprenyl to prevent substrate oxidation by MAO-B. Likewise, MAO-B assays included 0.1 μM clorgyline to block MAO-A activity. […] Inhibition of enzymatic activities was expressed as IC50 and as the Ki, which was calculated using the Cheng-Prusoff equation.
smiles,measurement,setting,value
"O=S1(=O)c2ccc(F)cc2Oc2cc(OCC(F)(F)F)ccc21 [CX157, 3-fluoro-7(2,2,2-trifluorethoxy)phenoxathiine-10,10-dioxide]",half-life,[1],20.6 to 23.5 h
same,reduction of [14C]-5-HT binding,Oxidase MAO-A Peripheral; 10.0 nM CX157,63.4%
same,reduction of [14C]-5-HT binding,Oxidase MAO-A Peripheral; 100 nM CX157,100.6%
same,Kd,"Oxidase MAO-A Peripheral; read-out: Kd, competition for [14C]-serotonin (5-HT) binding",8.7 nM
same,interactions with other binding sites in the screen,[2],no interactions
same,potency for MAO-A inhibition relative to moclobemide,MAO-A,more than 100 times
same,inhibition of rat liver MAO-B,rat liver MAO-B,did not inhibit
